Earlier results as cited in patent US20200345666A1, “HERBAL MEDICINAL TABLET FORMULATION FOR TREATING OBESITY WHICH CAN BE […] ON SASANG CONS[…]” (NUBEBE CO., LTD., priority 2017, published 2020).

Conditions: taken for 20 weeks or more; Journal of Korean Medicine 2017

Compound: CN[C@@H](C)[C@H](O)c1ccccc1 [ephedrine]
- weight and body fat loss compared to control group: showed weight and body fat loss
